According to ChEMBL document CHEMBL5579897, “Design, Synthesis, and Bioevaluation of Novel NLRP3 Inhibitor with IBD Immunotherapy from the Virtual Screen” (J Med Chem, 2024):
The source made the active and inactive calls. No cut-off for these calls is given here.

Assays:
BMDM [1] = assay: Inhibition of LPS/nigericin induced IL-1beta release in M-CSF induced C57BL/6 mouse BMDM cells at 0.5 to 20 uM preincubated with LPS for 4 hrs followed by compound addition for 30 mins and further incubated with nigericin for 30 mins by Western blot analysis; type: functional, cell-based; settings: dose 0.5-20 µM, time 60.0 min
THP-1 [2] = assay: Effect on LPS/nigericin induced intracellular ASC expression in PMA-differentiated human THP-1 cells at 0.5 to 20 uM preincubated with LPS for 4 hrs followed by compound addition for 30 mins and further incubated with nigericin for 30 mins by Western blot analysis; type: functional, cell-based; settings: dose 0.5-20 µM, time 60.0 min
BMDM [3] = assay: Effect on LPS/nigericin induced NLRP3 intracellular expression in M-CSF induced C57BL/6 mouse BMDM cells at 0.5 to 20 uM preincubated with LPS for 4 hrs followed by compound addition for 30 mins and further incubated with nigericin for 30 mins by Western blot analysis; type: functional, cell-based; settings: dose 0.5-20 µM, time 60.0 min
THP-1 [4] = assay: Cytotoxicity against PMA-differentiated human THP-1 cells assessed as reduction in cell viability at 0.5 to 100 uM measured after 24 hrs by MTT assay; type: toxicity, cell-based; settings: thp-1, 24 h, dose 0.5-100 µM
BMDM [5] = assay: Cytotoxicity against C57BL/6 mouse BMDM cells assessed as reduction in cell viability at 0.5 to 100 uM measured after 24 hrs by MTT assay; type: toxicity, cell-based; settings: dose 0.5-100 µM
THP-1 [6] = assay: Effect on LPS/nigericin induced intracellular pro-IL-1beta protein expression in PMA-differentiated human THP-1 cell lysate at 0.5 to 20 uM pretreated with compound followed by LPS stimulation for 4 hrs and further stimulated with nigericin by Western blot analysis; type: functional, subcellular; settings: dose 0.5-20 µM
THP-1 [7] = assay: Effect on LPS/nigericin induced intracellular pro-caspase-1 protein expression in PMA-differentiated human THP-1 cell lysate at 0.5 to 20 uM pretreated with compound followed by LPS stimulation for 4 hrs and further stimulated with nigericin by Western blot analysis; type: functional, subcellular; settings: dose 0.5-20 µM
THP-1 [8] = assay: Effect on LPS/nigericin induced NLRP3 mRNA expression in PMA-differentiated human THP-1 cells at 1 to 20 uM pretreated with compound followed by LPS stimulation for 4 hrs and further stimulated with nigericin by RT-PCR analysis; type: functional, cell-based; settings: dose 1-20 µM
THP-1 [9] = assay: Effect on LPS/nigericin induced IL-1beta mRNA expression in PMA-differentiated human THP-1 cells at 1 to 20 uM pretreated with compound followed by LPS stimulation for 4 hrs and further stimulated with nigericin by RT-PCR analysis; type: functional, cell-based; settings: dose 1-20 µM
THP-1 [10] = assay: Effect on LPS/nigericin induced caspase-1 mRNA expression in PMA-differentiated human THP-1 cells at 1 to 20 uM pretreated with compound followed by LPS stimulation for 4 hrs and further stimulated with nigericin by RT-PCR analysis; type: functional, cell-based; settings: dose 1-20 µM
[11] = target: T1, Interferon-inducible protein AIM2 (Homo sapiens) (UniProt O14862); assay: Inhibition of poly-(dA: dT)-induced AIM2 inflammasome activation in LPS-primed human THP-1 cells assessed as inhibition of IL-1beta secretion at 5 uM pretreated with LPS for 4 hrs followed by compound addition for 0.5 hrs and further stimulated with poly-(dA: dT) for 6 hrs by Western blot analysis; type: cell-based; settings: time 6.5 hrs
T1 sequence (whole entry): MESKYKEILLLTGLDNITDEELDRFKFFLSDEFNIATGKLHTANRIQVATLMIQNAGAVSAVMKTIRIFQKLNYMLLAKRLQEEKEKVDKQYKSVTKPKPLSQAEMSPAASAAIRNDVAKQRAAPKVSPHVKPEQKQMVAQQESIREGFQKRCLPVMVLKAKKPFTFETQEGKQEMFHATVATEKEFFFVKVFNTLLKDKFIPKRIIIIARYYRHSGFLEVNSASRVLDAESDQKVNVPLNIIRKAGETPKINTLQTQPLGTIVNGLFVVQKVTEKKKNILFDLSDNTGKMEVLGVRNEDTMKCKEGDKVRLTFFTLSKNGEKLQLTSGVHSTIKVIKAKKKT

[12] = AUC (0 to t) in male C57BL/6J mouse at 5 mg/kg, iv administered as single dose and measured over 24 hrs by LC-MS/MS analysis; type: ADME, organism-based; settings: in vivo
[13] = Volume of distribution in male C57BL/6J mouse at 5 mg/kg, iv administered as single dose and measured over 24 hrs by LC-MS/MS analysis; type: ADME, organism-based; settings: in vivo
[14] = Clearance in male C57BL/6J mouse at 5 mg/kg, iv administered as single dose and measured over 24 hrs by LC-MS/MS analysis; type: ADME, organism-based; settings: in vivo
[15] = Volume of distribution at steady state in male C57BL/6J mouse at 5 mg/kg, iv administered as single dose and measured over 24 hrs by LC-MS/MS analysis; type: ADME, organism-based; settings: in vivo, read-out: Vdss
[16] = Cmax in male C57BL/6J mouse at 5 mg/kg, po administered as single dose and measured over 24 hrs by LC-MS/MS analysis; type: ADME, organism-based; settings: in vivo
[17] = AUC (0 to t) in male C57BL/6J mouse at 5 mg/kg, po administered as single dose and measured over 24 hrs by LC-MS/MS analysis; type: ADME, organism-based; settings: in vivo
[18] = AUC (0 to infinity) in male C57BL/6J mouse at 5 mg/kg, po administered as single dose and measured over 24 hrs by LC-MS/MS analysis; type: ADME, organism-based; settings: in vivo
[19] = Oral bioavailability in male C57BL/6J mouse at 5 mg/kg administered as single dose and measured over 24 hrs by LC-MS/MS analysis; type: ADME, organism-based; settings: in vivo
Mus musculus [20] = assay: Antiinflammatory activity in male wild type C57BL/6 mouse model of DSS-induced ulcerative colitis assessed as reduction in body weight loss at 5 to 20 mg/kg, po administered for 10 days with subsequent treatment of DSS for 7 days followed by normal drinking water for 3 days; type: functional, organism-based; settings: dose 5-20 mg/kg, time 10.0 day
Mus musculus [21] = assay: Antiinflammatory activity in male wild type C57BL/6 mouse model of DSS-induced ulcerative colitis assessed as reduction in daily disease activity index at 5 to 20 mg/kg, po administered for 10 days with subsequent treatment of DSS for 7 days followed by normal drinking water for 3 days; type: functional, organism-based; settings: dose 5-20 mg/kg, time 10.0 day
Mus musculus [22] = assay: Antiinflammatory activity in male wild type C57BL/6 mouse model of DSS-induced ulcerative colitis assessed as reduction in IL-1beta level in plasma at 5 to 20 mg/kg, po administered for 10 days with subsequent treatment of DSS for 7 days followed by normal drinking water for 3 days by ELISA; type: functional, organism-based; settings: dose 5-20 mg/kg, time 10.0 day
Mus musculus [23] = assay: Antiinflammatory activity in male NLRP3 knockout C57BL/6 mouse model of DSS-induced ulcerative colitis assessed as reduction in daily disease activity index at 20 mg/kg, po administered for 10 days with subsequent treatment of DSS in drinking water; type: functional, organism-based; settings: time 10.0 day
Mus musculus [24] = assay: Antiinflammatory activity in male NLRP3 knockout C57BL/6 mouse model of DSS-induced ulcerative colitis assessed as reduction in colon shortening at 20 mg/kg, po administered for 10 days with subsequent treatment of DSS in drinking water; type: functional, organism-based; settings: time 10.0 day
Mus musculus [25] = assay: Antiinflammatory activity in male NLRP3 knockout C57BL/6 mouse model of DSS-induced ulcerative colitis assessed as reduction in IL-1beta level in plasma at 20 mg/kg, po administered for 10 days with subsequent treatment of DSS in drinking water by ELISA; type: functional, organism-based; settings: time 10.0 day

inhibition [11]: inactive
AUC(0-t) at 24 h [12]: 2220 ng·h/mL
Vd [13]: 5.76 L/kg
clearance [14]: 37.8 mL/min/kg
Vd [15]: 1.4 L/kg
Cmax [16]: 358 ng/mL
AUC(0-t) at 24 h [17]: 266 ng·h/mL
AUC(0-inf) [18]: 371 ng·h/mL
bioavailability [19]: 16.7%
SMILES: COc1ccccc1CCNC(=O)/C(=C/c1ccc(Br)cc1)CS(=O)(=O)CCC#N
inhibition (BMDM [1]): Active
Activity (THP-1 [2]): inactive
Activity (BMDM [3]): inactive
Activity (THP-1 [4]): Non-Toxic
Activity (BMDM [5]): Non-Toxic
Activity (THP-1 [6]): inactive
Activity (THP-1 [7]): inactive
Activity (THP-1 [8]): inactive
Activity (THP-1 [9]): inactive
Activity (THP-1 [10]): inactive
Activity (Mus musculus [20]): Active
Activity (Mus musculus [21]): Active
Activity (Mus musculus [22]): Active
Activity (Mus musculus [23]): inactive
Activity (Mus musculus [24]): inactive
Activity (Mus musculus [25]): inactive
